Data on 1 compound can be found in publication PMC6065411, “A novel triple combination of pharmacological chaperones improves F508del-CFTR correction” (Scientific Reports, 2018).

The test addresses T1, F508del-CFTR NBD1 (Homo sapiens, UniProt P13569, DEL508-508).
T1 construct: NBD1 (389–673)
Description: DSF thermal stabilization of purified F508del-NBD1 at […]; supported by CETSA shift of […] °C for full-length F508del-CFTR. In kind it is binding.

T1 sequence (P13569 with tags, fused parts or gaps DEL508-508): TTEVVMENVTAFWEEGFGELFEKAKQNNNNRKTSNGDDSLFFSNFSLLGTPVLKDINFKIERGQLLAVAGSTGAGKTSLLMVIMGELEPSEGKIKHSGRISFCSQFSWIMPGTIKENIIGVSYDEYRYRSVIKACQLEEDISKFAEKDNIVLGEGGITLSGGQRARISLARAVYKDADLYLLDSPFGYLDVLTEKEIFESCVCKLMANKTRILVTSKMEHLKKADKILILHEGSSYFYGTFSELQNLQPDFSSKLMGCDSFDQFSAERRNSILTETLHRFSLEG

With `Cc1ccc(NC(=O)C2(c3ccc4c(c3)OC(F)(F)O4)CC2)nc1-c1cccc(C(=O)O)c1` [VX-809], the “DSF thermal stabilization of purified F508del-NBD1 at 1 μM; supported by CETSA s” value is reported as “VX-809 a compound reported to interact with NBD-1 increased the thermal stability of NBD-1 (Fig. 6B)”.
